According to US20250188088A1, “COMPOUND AND USE THEREOF” (ONQUALITY PHARMACEUTICALS CHINA LTD., priority 2022, published 2025):
In brackets after ≈: the same amount, converted by molar mass. Where two headings read alike, the source gives them in different places.

Legend:
[1] = Log D measurement (n-octanol/PBS shake, LC-MS/MS); assay type: physicochemical; settings: pH 7.4, read-out: LogD7.4 (Oct/buff)
Method: Two replicates of test compounds (DMSO stock solution 10 mM, 2 μL/well) and QCs (DMSO 10 mM, 2 μL/well) were transferred from the storage tube to a 96-well cluster tube. Add buffer-saturated n-octanol ([…]) and n-octanol-saturated PBS (149 μL/well) to each well; vortex mix the cluster tube for 1 minute, mix by shaking on a plate shaker at 880 rpm for one hour, and then centrifuge at 4000 rpm for 10 minutes. Remove the cover pad, accurately measure a certain amount of n-octanol layer samples (4 μL/well) into a 96-well plate containing n-octanol internal standard diluent (796 μL/well); accurately measure a certain amount of buffer salt layer samples (30 μL/well) into a 96-well plate containing buffer internal standard diluent (570 μL/well); the dilution factor of the sample can be adjusted according to different properties of the sample. Samples were analyzed using a triple quadrupole mass spectrometer. The processed sample solution was analyzed by the fast isocratic elution and small column retention method, the concentration correction was carried out by dilution factor and internal standard, and the ratio of the corrected peak area was used to calculate the final result (Log D/Log P value).

[2] = system: rash caused by small molecule EGFR inhibitors; test: Prevention of rash caused by small molecule EGFR inhibitors, topical ointment, rat model; assay type: in vivo, SD rats
Outline: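 Female SD rats (~200 g, dorsal hair shaved, 10/group) dosed daily by gavage with small-molecule EGFR inhibitors; compound ointment or blank matrix applied once daily to ~3 cm×3 cm of back, left 4 h, then wiped off. Repeated until obvious rash in controls; control rate = % of treated rats with milder rash than controls.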

[3] = Plasma stability, mini pig plasma; assay type: in vitro ADME, Mini Pigs; settings: 37° C.
Method: (§1) In addition, the plasma stability of these compounds was determined. Briefly, the determination method comprises the following steps: • 1) Thaw the frozen mixed plasma in a 37° C. water bath before testing, and then centrifuge at 4000 rpm for 5 min to remove blood clots; • 2) Add 98 μL blank plasma into each well of the 96-well reaction plate; • 3) In addition to the blank samples, add 2 μL of 100 μM working solution of test compound into each well; • 3) Incubate the reaction plate at 37° C. and start timing. Incubation times were 0, 10, 30, 60 and 120 minutes, respectively, with two replicate wells at each time point; • 4) Terminate the incubation at the corresponding time point, and add 400 μL of acetonitrile solution containing 200 ng/mL tolbutamide and 200 ng/mL labetalol to precipitate proteins; • 5) Shake each plate for 20 minutes, then centrifuge at 4000 rpm for 20 minutes, transfer 50 μL of supernatant to another 96-well plate, and dilute each sample with 100 μL of pure water; • 6) Analyze the sample by LC-MS/MS.

[4] = Plasma stability, human plasma; assay type: in vitro ADME, Humans; settings: 37° C.
Method: as §1
The experiment results are as follows, and it can be seen from the test results that the selected compounds are easily metabolized to the target compound in human plasma.

[5] = Thermodynamic solubility assay (PBS pH 6.5; isopropyl myristate); assay type: physicochemical; settings: thermodynamic from solid
Method: Thermodynamic Solubility Assay
Weigh not less than 2 mg of the sample powder into a Whatman Mini-UniPrep vial. If it is required to test the thermodynamic solubility of samples in multiple buffers, a separate vial is needed for each test; add 450 μL of buffer to each Whatman Mini-UniPrep vial, respectively; after that, install the piston cap of Whatman Mini-UniPrep and press it above the liquid level, so that the filter is in contact with the buffer during shaking; shake the solubility sample by vortexing for 1 minute.
Inject 3 UV standard solutions from low to high concentrations into the HPLC, then inject the diluent and supernatant of the test compound, with two replicates of test sample; and integrate the UV peaks. Simulate a standard curve and calculate the thermodynamic solubility of the sample.

[6] = system: skin contact delayed-type hypersensitivity; test: Skin contact delayed-type hypersensitivity (DNFB) response test, ear swelling, topical ointment; assay type: in vivo; settings: topical to ears, DNFB DTH, Balb/c mice, compared to blank ointment
Excerpt: Therapeutic Effect of Topical Administration of Compounds of the Present Application in Skin Contact Delayed-Type Hypersensitivity Response Test in Mice Delayed-type hypersensitivity (DTH) response in mouse skin is considered to be an effective model for clinical contact dermatitis and other T cell-mediated cutaneous immune diseases, such as atopic dermatitis and psoriasis. The DTH in mice shares the common features with these cutaneous immune diseases, including immunoinfiltration with an increase of inflammatory cytokines and hyperproliferation of keratinocytes. Balb/c mice were sensitized by topical administration of the antigen 2,4-dinitrofluorobenzene (DNFB) to the shaved back of mice on Days 0 and 1. On Day 5, the thickness of the ears was measured using an engineering micrometer. The measurement result was recorded and used as a baseline. The animals were then challenged with a total of 20 μL of DNFB (10 μL for the internal pinna and 10 μL for the external pinna) topically dosed to both ears at a concentration of 0.2%. The ears were measured again 24-72 hours after challenge. The compound ointment of the present application was applied topically to the ears of the animals throughout the allergic and challenge periods (Days −1˜7) or before or throughout the challenge period (generally Days 4˜7). The therapeutic effect was expressed by a reduction in ear swelling compared to that of the blank ointment. The compound causing a reduction of 20% or more was considered effective. Table 5 lists the skin contact delayed-type hypersensitivity experiment results in mice treated with the compound of the present application.

- logD [1]: 0.23
- half-life at 2 µM [3]: 9.1 min
- % Retained ([3]; 0 min): 100.0%
- % Retained ([3]; 10 min): 57.3%
- % Retained ([3]; 30 min): 13.5%
- % Retained ([3]; 60 min): 1.3%
- % Retained ([3]; 120 min): 0.0%
- half-life at 2 µM [4]: 1.9 min
- % Retained ([4]; 0 min): 100.0%
- % Retained ([4]; 10 min): 2.6%
- % Retained ([4]; 30 min): 0.0%
- % Retained ([4]; 60 min): 0.0%
- % Retained ([4]; 120 min): 0.0%
- solubility thermodynamic at 24 h ([5]; aqueous buffer, PBS buffer pH 6.5, about 25° C., read-out: Thermodynamic Solubility pH = 6.5): > 4840 µg/mL
- solubility thermodynamic at 24 h ([5]; oil or lipid, isopropyl myristate as vehicle, about 25° C., read-out: Thermodynamic Solubility in Isopropyl Myristate): 54.7 µg/mL (≈ 103 µM)
Structure (SMILES): COCCOCC(=O)OCCN(C)C(=O)n1ccc2c(N(C)[C@H]3CN(C(=O)CC#N)CC[C@H]3C)ncnc21 [Compound A18]
- Control Rate ([2]; BPI-7711 60 mg/kg once a day, ointment 3.0 wt% once a day, 14 days): 70%
- Control Rate ([2]; EAI045 80 mg/kg once a day, ointment 0.3 wt% once a day, 11 days): 30%
- Control Rate ([2]; EAI045 80 mg/kg once a day, ointment 3.0 wt% once a day, 11 days): 70%
- Control Rate ([2]; EAI045 80 mg/kg once a day, ointment 5.0 wt% once a day, 11 days): 90%
- Control Rate ([2]; Zorifertinib 60 mg/kg once a day, ointment 3.0 wt% once a day, 12 days): 60%
- Reduction Rate of Ear Swelling ([6]; ointment 0.1 wt%): 23%
- Reduction Rate of Ear Swelling ([6]; ointment 1.0 wt%): 29%
- Reduction Rate of Ear Swelling ([6]; ointment 5.0 wt%): 37%
- Reduction Rate of Ear Swelling ([6]; ointment 10.0 wt%): 45%
